Experimental findings from patent US12084437B2, “Halo-substituted piperidines as orexin receptor modulators” (AstraZeneca AB, priority 2016, dated 2024) are described below.

Values joined by “and” are separate entries in the source; they are usually repeats but may differ in a detail not shown here. Equal values may be shown once. Where only a bound is given, the exact number is not on record here.

One assay addresses T1, OX1 (Homo sapiens, UniProt O43613).
T1 construct: expressed in transfected cells; host or cells: CHO (CHO-OX1)
T1 sequence (O43613 1-425): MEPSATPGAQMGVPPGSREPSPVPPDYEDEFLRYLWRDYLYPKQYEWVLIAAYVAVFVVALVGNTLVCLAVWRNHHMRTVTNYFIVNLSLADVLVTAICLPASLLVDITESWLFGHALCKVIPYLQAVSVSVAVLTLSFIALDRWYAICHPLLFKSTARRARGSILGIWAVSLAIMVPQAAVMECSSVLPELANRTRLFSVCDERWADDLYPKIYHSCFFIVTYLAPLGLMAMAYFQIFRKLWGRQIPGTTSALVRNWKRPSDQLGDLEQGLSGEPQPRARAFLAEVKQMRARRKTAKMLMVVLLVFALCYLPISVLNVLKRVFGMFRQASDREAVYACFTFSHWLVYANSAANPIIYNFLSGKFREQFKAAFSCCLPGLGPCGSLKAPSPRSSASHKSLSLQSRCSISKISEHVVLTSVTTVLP
In words: Orexin receptor cell-based functional assay, [Ca2+]i by FLIPR, CHO-OX1 cells. The settings on record: FLIPR calcium, antagonism of EC90 of [OX], read-out: OXI, IC50. Here is the method: (§1) Measurement of [Ca^2+]i using a FLIPR: CHO-OX1 or CHO-OX2 cells were seeded into black-walled clear-base 384-well plates (Corning, catalog #3712) at a density of 20,000 cells per well in F12-K medium supplemented with 10% FBS and then incubated in a 5% CO2, 37° C. incubator overnight to reach 90% confluency. The cells were incubated with equal volume of calcium6 loading buffer (Molecular Devices, Inc.) containing 2.5 mM probenecid at 37° C. for 2 h, followed by test compounds (dose-range 0.1 nM-10 μM) for another 30 min. The plates were then placed into a FLIPR (Molecular Devices, Inc.) to monitor fluorescence (λ excitation 488 nm, λ emission 540 nm) before and after the addition of EC90 of [OX].

In the next assay the target is T2, OX2 (Homo sapiens, UniProt O43614).
T2 construct: expressed in transfected cells; host or cells: CHO (CHO-OX2)
T2 sequence (O43614 1-444): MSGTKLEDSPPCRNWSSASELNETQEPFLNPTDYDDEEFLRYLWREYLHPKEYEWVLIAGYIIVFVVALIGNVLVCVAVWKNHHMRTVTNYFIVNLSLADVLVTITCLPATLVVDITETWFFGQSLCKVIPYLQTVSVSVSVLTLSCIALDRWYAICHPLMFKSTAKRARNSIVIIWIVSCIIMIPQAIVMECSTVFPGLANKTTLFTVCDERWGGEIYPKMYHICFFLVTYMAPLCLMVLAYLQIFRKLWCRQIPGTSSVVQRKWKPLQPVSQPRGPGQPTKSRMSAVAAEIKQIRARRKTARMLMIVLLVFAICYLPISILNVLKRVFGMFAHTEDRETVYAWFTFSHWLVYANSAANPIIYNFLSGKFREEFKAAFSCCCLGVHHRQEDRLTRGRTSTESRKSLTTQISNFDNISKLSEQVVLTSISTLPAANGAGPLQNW
Kind of assay: Orexin receptor cell-based functional assay, [Ca2+]i by FLIPR, CHO-OX2 cells. Particulars: FLIPR calcium, antagonism of EC90 of [OX]. The protocol: as §1, with “[OX]. Results for exemplary compounds of Formulae (I), (Ia), (Ib), (II), (IIa), (III), (IIIa), (IV), (IVa), (V), or (Va) are shown in Table 3.” for “[OX].”

With `C[C@@H]1CC(F)(F)CN(C(=O)c2nn(C)cc2-c2ncccn2)[C@@H]1COc1cnc(C(F)(F)F)cn1` [Compound 223, ((2S,3R)-5,5-difluoro-3-methyl-2-(((5-(trifluoromethyl)pyrazin-2-yl)oxy)methyl)piperidin-1-yl)(1-methyl-4-(pyrimidin-2-yl)-1H-pyrazol-3-yl)methanone], the results for the IC50 on OX1 and on OX2 were 0.052 µM and above 5 µM, respectively.

In the case of `COc1ccc(-c2sc(C)nc2C(=O)N2CC(F)(F)C[C@@H](C)[C@H]2CNc2ncc(C(F)(F)F)cn2)nc1` [Compound 78], the IC50 is 0.002 µM on OX1 and above 5 µM at OX2.

For `C[C@@H]1CC(F)(F)CN(C(=O)c2cnn(C)c2-c2ccccn2)[C@@H]1CNc1ncc(C(F)(F)F)cn1` [Compound 95], the IC50 at OX1 is above 1 µM; at OX2, above 5 µM.

With `C[C@@H]1CC(F)(F)CN(C(=O)c2nn(C)cc2-c2ccc(F)cc2)[C@@H]1CNc1cnc(C(F)(F)F)cn1` [Compound 121], the IC50 on OX1 is 0.005 µM; on OX2, above 5 µM.

On to `Cc1ccc(-c2ccccn2)c(C(=O)N2CC(F)(F)C[C@@H](C)[C@H]2CNc2ncc(C(F)(F)F)cn2)n1` [Compound 16, ((2S,3R)-5,5-difluoro-3-methyl-2-(((5-(trifluoromethyl)pyrimidin-2-yl)amino)methyl)piperidin-1-yl)(6′-methyl-[2,3′-bipyridin]-2′-yl)methanone], for which the IC50 is 0.06 µM on OX1 and above 5 µM at OX2.

With `C[C@@H]1CC(F)(F)CN(C(=O)c2nn(C)cc2-c2ccc(F)cn2)[C@@H]1CNc1ncc(C(F)(F)F)cn1` [Compound 42], the values for the IC50 on OX1 and on OX2 were above 1 µM and above 5 µM, respectively.

In the case of `Cc1nc(C(=O)N2CC(F)(F)C[C@@H](C)[C@H]2CNc2ncc(C(F)(F)F)cn2)c(-c2ccccc2)s1` [Compound 65], the IC50 on OX1 was 0.002 µM; on OX2, above 5 µM.

As to `Cc1nc(C(=O)N2CC(F)(F)C[C@@H](C)[C@H]2CNc2ncc(C(F)(F)F)cn2)c(-c2ccc(F)cn2)s1` [Compound 72], the IC50 is 0.237 µM at OX1 and above 5 µM at OX2.

In the case of `Cc1ccc(-c2cn(C)nc2C(=O)N2CC(F)(F)C[C@@H](C)[C@H]2CNc2ccc(C(F)(F)F)cn2)cc1` [Compound 175], the IC50 worked out at 0.004 µM on OX1 and 4.14 µM on OX2.

Take `CCc1cnc(NC[C@@H]2[C@H](C)CC(F)(F)CN2C(=O)c2nn(C)cc2-c2ccc(F)cn2)nc1` [Compound 41]: the IC50 at OX1 and on OX2 was above 5 µM in each case.

As for `Cc1ccc(-c2ccc(C)nc2C(=O)N2CC(F)(F)C[C@@H](C)[C@H]2CNc2ncc(C(F)(F)F)cn2)nc1` [Compound 231, ((2S,3R)-5,5-difluoro-3-methyl-2-(((5-(trifluoromethyl)pyrimidin-2-yl)amino)methyl)piperidin-1-yl)(5,6′-dimethyl-[2,3′-bipyridin]-2′-yl)methanone], the IC50 at OX1 was 0.014 µM; on OX2 it was above 5 µM.

`C[C@@H]1CC(F)(F)CN(C(=O)c2cc(Cl)ccc2-n2nccn2)[C@@H]1CNc1ncc(C(F)(F)F)cn1` [Compound 10]: the results for the IC50 at OX1 and at OX2 were 0.007 µM and above 5 µM, respectively.

As to `Cc1cccc(-c2cn(C)nc2C(=O)N2CC(F)(F)C[C@@H](C)[C@H]2CNc2ncc(C(F)(F)F)cn2)n1` [Compound 46], the IC50 at OX1 was 0.007 µM; at OX2, above 5 µM.

Regarding `C[C@@H]1CC(F)(F)CN(C(=O)c2nn(C)cc2-c2ncc(C(F)(F)F)cn2)[C@@H]1CNc1ncc(C(F)(F)F)cn1` [Compound 226, ((2S,3R)-5,5-difluoro-3-methyl-2-(((5-(trifluoromethyl)pyrimidin-2-yl)amino)methyl)piperidin-1-yl)(1-methyl-4-(5-(trifluoromethyl)pyrimidin-2-yl)-1H-pyrazol-3-yl)methanone], the IC50 was 0.35 µM on OX1 and above 5 µM at OX2.

Take `COc1cccc(-c2cn(C)nc2C(=O)N2CC(F)(F)C[C@@H](C)[C@H]2CNc2cnc(C(F)(F)F)cn2)c1` [Compound 124]: the IC50 at OX1 worked out at 0.004 µM; at OX2, 1 µM.

Take `Cc1ccnc(-c2cn(C)nc2C(=O)N2CC(F)(F)C[C@@H](C)[C@H]2CNc2ncc(C(F)(F)F)cn2)n1` [Compound 225, ((2S,3R)-5,5-difluoro-3-methyl-2-(((5-(trifluoromethyl)pyrimidin-2-yl)amino)methyl)piperidin-1-yl)(1-methyl-4-(4-methylpyrimidin-2-yl)-1H-pyrazol-3-yl)methanone]: the figures for the IC50 on OX1 and on OX2 were 0.017 µM and above 5 µM, respectively.

With `C[C@@H]1CC(F)(F)CN(C(=O)c2nn(C)cc2-c2ccccc2)[C@@H]1CNc1cnc(C(F)(F)F)cn1` [Compound 120, ((2S,3R)-5,5-difluoro-3-methyl-2-(((5-(trifluoromethyl)pyrazin-2-yl)amino)methyl)piperidin-1-yl)(1-methyl-4-phenyl-1H-pyrazol-3-yl)methanone], the IC50 is 0.002 µM at OX1 and above 5 µM at OX2.

Take `COc1cccc(-c2sc(C)nc2C(=O)N2CC(F)(F)C[C@@H](C)[C@H]2CNc2cnc(C(F)(F)F)cn2)n1` [Compound 151]: the values for the IC50 at OX1 and at OX2 were 0.011 µM and above 5 µM, respectively.

As for `Cc1cccc(-c2sc(C)nc2C(=O)N2CC(F)(F)C[C@@H](C)[C@H]2CNc2cnc(C(F)(F)F)cn2)c1` [Compound 139], the IC50 at OX1 is 0.01 µM; on OX2, above 5 µM.

Turning to `C[C@@H]1CC(F)(F)CN(C(=O)c2nn(C)cc2-c2ccncn2)[C@@H]1CNc1ncc(C(F)(F)F)cn1` [Compound 241, ((2S,3R)-5,5-difluoro-3-methyl-2-(((5-(trifluoromethyl)pyrimidin-2-yl)amino)methyl)piperidin-1-yl)(1-methyl-4-(pyrimidin-4-yl)-1H-pyrazol-3-yl)methanone], the concentration for half-maximal inhibition (IC50) was above 1 µM on OX1 and above 5 µM at OX2.

Turning to `COc1ccc(-c2cn(C)nc2C(=O)N2CC(F)(F)C[C@@H](C)[C@H]2CNc2cnc(C(F)(F)F)cn2)cc1` [Compound 125], the IC50 at OX1 was 0.004 µM and 0.002 µM; at OX2, above 5 µM.

`Cc1nc(-c2ccccc2)c(C(=O)N2CC(F)(F)C[C@@H](C)[C@H]2CNc2ncc(C(F)(F)F)cn2)s1` [Compound 48]: the IC50 on OX1 is 0.607 µM; at OX2 it was above 5 µM.

Take `C[C@@H]1CC(F)(F)CN(C(=O)c2cc(C#N)ccc2-n2nccn2)[C@@H]1CNc1ncc(Cl)cn1` [Compound 15]: the values for the IC50 at OX1 and on OX2 were 0.046 µM and above 5 µM, respectively.

Regarding `C[C@@H]1CC(F)(F)CN(C(=O)c2nn(C)nc2-c2ccccn2)[C@@H]1CNc1ncc(C(F)(F)F)cn1` [Compound 83], the IC50 on OX1 is 0.056 µM; on OX2, above 5 µM.

For `Cc1nc(C(=O)N2CC(F)(F)C[C@@H](C)[C@H]2CNc2ncc(C(F)(F)F)cn2)c(-c2ccccc2)o1` [Compound 85], the IC50 on OX1 was 0.012 µM and 0.03 µM; at OX2, above 5 µM.

In the case of `Cc1ccc(-c2ncccn2)c(C(=O)N2CC(F)(F)C[C@@H](C)[C@H]2CNc2ncc(C(F)(F)F)cn2)c1` [Compound 55, ((2S,3R)-5,5-difluoro-3-methyl-2-(((5-(trifluoromethyl)pyrimidin-2-yl)amino)methyl)piperidin-1-yl)(5-methyl-2-(pyrimidin-2-yl)phenyl)methanone], the IC50 at OX1 is 0.03 µM; at OX2 it was above 5 µM.
